{"source": "patent US11535670B2", "about": "“Combination therapies of HDAC inhibitors and PD-L1 inhibitors” (HUYABIO International, LLC, priority 2016, dated 2022)", "origin": "cited, not measured here", "conditions_in_all_cases": "cited from earlier work", "key": {"[1]": {"target": "HDAC 1 (Homo sapiens, UniProt Q13547)", "sequence (Q13547 whole entry)": "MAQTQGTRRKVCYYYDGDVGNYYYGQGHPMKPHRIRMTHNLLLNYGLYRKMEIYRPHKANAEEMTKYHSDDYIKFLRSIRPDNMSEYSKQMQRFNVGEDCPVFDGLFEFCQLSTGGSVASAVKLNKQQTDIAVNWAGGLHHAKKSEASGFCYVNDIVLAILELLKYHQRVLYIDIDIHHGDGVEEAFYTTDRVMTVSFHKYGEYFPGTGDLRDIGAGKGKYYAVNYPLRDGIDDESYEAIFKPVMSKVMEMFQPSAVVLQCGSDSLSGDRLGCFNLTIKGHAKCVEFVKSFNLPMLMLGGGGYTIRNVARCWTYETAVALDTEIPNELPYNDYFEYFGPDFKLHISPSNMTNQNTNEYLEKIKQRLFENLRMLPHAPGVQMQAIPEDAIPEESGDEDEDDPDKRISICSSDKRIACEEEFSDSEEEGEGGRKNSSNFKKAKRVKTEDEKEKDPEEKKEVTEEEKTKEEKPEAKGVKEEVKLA"}, "[2]": {"target": "HDAC 3 (Homo sapiens, UniProt O15379)", "sequence (O15379 whole entry)": "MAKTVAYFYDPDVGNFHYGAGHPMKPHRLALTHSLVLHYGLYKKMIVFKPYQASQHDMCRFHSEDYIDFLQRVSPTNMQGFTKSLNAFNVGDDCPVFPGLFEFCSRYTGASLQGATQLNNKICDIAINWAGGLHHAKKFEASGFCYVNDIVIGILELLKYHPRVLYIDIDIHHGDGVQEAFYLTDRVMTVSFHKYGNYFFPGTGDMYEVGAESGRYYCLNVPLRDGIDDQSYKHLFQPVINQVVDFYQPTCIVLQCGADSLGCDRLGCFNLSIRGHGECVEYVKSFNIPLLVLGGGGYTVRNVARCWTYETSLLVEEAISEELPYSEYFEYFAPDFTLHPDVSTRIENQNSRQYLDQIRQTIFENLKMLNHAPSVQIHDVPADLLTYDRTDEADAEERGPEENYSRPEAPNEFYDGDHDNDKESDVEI", "sequence (Q9Y618 395-489 partner limits assumed)": "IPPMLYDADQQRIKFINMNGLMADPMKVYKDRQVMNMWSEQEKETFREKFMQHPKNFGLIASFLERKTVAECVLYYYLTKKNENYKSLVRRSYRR"}, "[3]": {"target": "T1, HDAC 10 (Homo sapiens, UniProt Q969S8)", "T1 sequence (Q969S8 1-669)": "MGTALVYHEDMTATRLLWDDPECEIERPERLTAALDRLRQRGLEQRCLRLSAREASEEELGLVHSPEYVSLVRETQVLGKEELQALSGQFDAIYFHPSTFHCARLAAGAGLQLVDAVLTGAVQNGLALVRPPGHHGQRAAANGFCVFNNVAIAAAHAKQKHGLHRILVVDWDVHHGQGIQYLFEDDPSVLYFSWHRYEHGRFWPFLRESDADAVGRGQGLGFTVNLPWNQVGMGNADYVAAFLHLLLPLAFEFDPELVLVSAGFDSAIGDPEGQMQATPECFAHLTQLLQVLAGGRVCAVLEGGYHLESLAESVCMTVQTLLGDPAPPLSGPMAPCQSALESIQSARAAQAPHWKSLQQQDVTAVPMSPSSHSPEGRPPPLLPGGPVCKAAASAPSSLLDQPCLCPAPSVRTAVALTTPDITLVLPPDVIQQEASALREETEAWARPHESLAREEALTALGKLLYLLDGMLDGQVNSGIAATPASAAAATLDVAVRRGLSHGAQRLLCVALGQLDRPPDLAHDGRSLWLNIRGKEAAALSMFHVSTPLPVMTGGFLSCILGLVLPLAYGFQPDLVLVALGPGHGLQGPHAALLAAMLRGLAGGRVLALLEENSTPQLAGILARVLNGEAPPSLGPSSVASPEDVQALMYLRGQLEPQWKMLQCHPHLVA"}, "[4]": {"target": "T2, HDAC 8 (Homo sapiens, UniProt Q9BY41)", "T2 sequence (Q9BY41 1-377)": "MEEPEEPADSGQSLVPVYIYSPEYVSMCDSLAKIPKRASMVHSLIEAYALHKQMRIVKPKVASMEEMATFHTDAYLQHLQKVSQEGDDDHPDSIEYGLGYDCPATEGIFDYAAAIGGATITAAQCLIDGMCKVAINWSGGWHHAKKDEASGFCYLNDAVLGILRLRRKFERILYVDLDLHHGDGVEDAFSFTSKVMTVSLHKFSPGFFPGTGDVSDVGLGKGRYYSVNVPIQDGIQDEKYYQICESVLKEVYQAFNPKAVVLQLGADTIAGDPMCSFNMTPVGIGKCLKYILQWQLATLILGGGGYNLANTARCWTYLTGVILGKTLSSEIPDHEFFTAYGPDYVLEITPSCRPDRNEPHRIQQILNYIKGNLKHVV"}}}
{"smiles": "Nc1cc(F)ccc1NC(=O)c1ccc(CNC(=O)/C=C/c2cccnc2)cc1", "note": "[HBI-8000, N-(2-amino-4-fluorophenyl)-4-[[[(2E)-1-oxo-3-(3-pyridinyl)-2-propen-1-yl]amino]methyl]benzamide]", "values": [{"measurement": "inhibition of HDAC 1", "setting": "[1]", "value": "low nanomolar concentrations"}, {"measurement": "activity at HDAC 1 compared with Entinostat", "setting": "[1]; versus Entinostat", "value": "more active than Entinostat"}, {"measurement": "inhibition of HDAC 3", "setting": "[2]", "value": "low nanomolar concentrations"}, {"measurement": "activity at HDAC 3 compared with Entinostat", "setting": "[2]; versus Entinostat", "value": "more active than Entinostat"}, {"measurement": "inhibition of HDAC 10", "setting": "[3]", "value": "low nanomolar concentrations"}, {"measurement": "activity at HDAC 10 compared with Entinostat", "setting": "[3]; versus Entinostat", "value": "more active than Entinostat"}, {"measurement": "activity at HDAC 8", "setting": "[4]", "value": "has activity"}, {"measurement": "activity at HDAC 8 compared with Entinostat", "setting": "[4]; versus Entinostat", "value": "more active than Entinostat"}]}
